Structures can show the parent of a compound that is named as a salt. Where two headings read alike, the source gives them in different places.
Experiments:
Type in all cases: in vivo
[1] = tested on: tomato late blight
[2] = tested on: cucumber downy mildew; assay: Test on preventive effect against cucumber downy mildew
Experimental: Cucumber (cultivar: Suyo) was cultivated in a polyethylene pot having a diameter of 7.5 cm, and when the cucumber reached two-leaf stage, a drug solution having the respective test compounds adjusted to the predetermined concentrations, was applied in a sufficient amount (20 ml) by means of a spray gun. After the applied solution dried, the cucumber was sprayed and inoculated with a suspension of spores of cucumber downy mildew and kept in a humidified chamber at 20° C. for 4 hours. Thereafter, the cucumber was kept in a thermostatic chamber at 20° C. for 7 days, whereupon the lesion area ratio in the first leaf was investigated, and the control value was obtained by the following formula. Here, the test was carried out in double series.
The lesion area ratio in non-treated area was obtained in the same manner as in the treated area except that instead of the drug solution, water was applied by means of a spray gun. Control value=(b−a)/b×100 where a is the lesion area ratio in treated area, and b is the lesion area ratio in non-treated area.
(§1) Further, a theoretical value can be calculated by the Colby formula. If the experimental value is higher than the theoretical value by the Colby formula, the fungicidal composition for agricultural or horticultural use of the present invention has a synergistic effect for controlling the plant disease. In this context, the theoretical values by the Colby formula are also shown in brackets ( ) in Table 1.

[3] = tested on: cucumber downy mildew; assay: Test on curative effect against cucumber downy mildew
Experimental: Cucumber (cultivar: Suyo) was cultivated in a polyethylene pot having a diameter of 7.5 cm, and when it reached two-leaf stage, the cucumber was sprayed and inoculated with a suspension of spores of cucumber downy mildew and kept in a humidified chamber at 20° C. for 4 hours. Then, after drying the crop plant, a drug solution having the respective test compounds adjusted to the predetermined concentrations, was applied in a sufficient amount (20 ml) by means of a spray gun. After the sprayed solution dried, it was kept in a thermostatic chamber at 20° C. for 7 days, whereupon the lesion area ratio in the first leaf was investigated, and the control value was obtained by the following formula. Here, the test was carried out in double series.
The lesion area in non-treated area was obtained in the same manner as in the treated area except that instead of the drug solution, water was applied by means of a spray gun. Control value=(b−a)/b×100 where a is the lesion area ratio in treated area, and b is the lesion area ratio in non-treated area.
as §1, with “2.” for “1.”

[4] = propamocarb hydrochloride 1000 ppm alone (Compound No. 1 0 ppm)
[5] = propamocarb hydrochloride 2000 ppm alone (Compound No. 1 0 ppm)
[6] = propamocarb hydrochloride 4000 ppm alone (Compound No. 1 0 ppm)

Row | Compound | Control value in the test on preventive effect against tomato late blight ([1]; Compound No. 1 0.5 ppm alone (propamocarb hydrochloride 0 ppm)) | Control value in the test on preventive effect against cucumber downy mildew ([2]; Compound No. 1 0.03 ppm alone (propamocarb hydrochloride 0 ppm)) | Control value in the test on preventive effect against cucumber downy mildew ([2]; Compound No. 1 0.13 ppm alone (propamocarb hydrochloride 0 ppm)) | Control value in the test on curative effect against cucumber downy mildew ([3]; Compound No. 1 125 ppm alone (propamocarb hydrochloride 0 ppm)) | Control value in the test on curative effect against cucumber downy mildew ([3]; Compound No. 1 500 ppm alone (propamocarb hydrochloride 0 ppm)) | Control value in the test on preventive effect against tomato late blight [1, 4] | Control value in the test on preventive effect against tomato late blight [1, 5] | Control value in the test on preventive effect against tomato late blight [1, 6] | Control value in the test on preventive effect against cucumber downy mildew [2, 4] | Control value in the test on preventive effect against cucumber downy mildew [2, 5] | Control value in the test on preventive effect against cucumber downy mildew [2, 6] | Control value in the test on curative effect against cucumber downy mildew [3, 4] | Control value in the test on curative effect against cucumber downy mildew [3, 5] | Control value in the test on curative effect against cucumber downy mildew [3, 6]
1 | Cc1ccc(-c2c(Cl)nc(C#N)n2S(=O)(=O)N(C)C)cc1 [Compound No. 1, 4-Chloro-2-cyano-1-dimethylsulfamoyl-5-(4-methylphenyl)imidazole] | 67 | 0 | 90 | 0 | 90 |  |  |  |  |  |  |  |  | 
2 | CCCOC(=O)NCCCN(C)C [propamocarb hydrochloride] |  |  |  |  |  | 0 | 0 | 0 | 0 | 10 | 30 | 10 | 20 | 30
